Measurements as given in the METLIN SMRT retention time set (Domingo-Almenara et al. 2019).

Test: gradient 5% acetonitrile 3 min, to 50% in 2 min, to 85% in 15 min, held 3 min, 100 µL/min
Conditions: column: Zorbax Extend-C18 2.1 x 50 mm; eluents: water / acetonitrile, 0.1% formic acid
Method in brief: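 A Zorbax Extend-C18 column (2.1 × 50 mm, 1.8 μm) run at 100 μL/min with water and acetonitrile, both containing 0.1% formic acid, separated mixtures of ~100 pure standards. The HPLC was coupled to a quadrupole time-of-flight mass spectrometer operated in positive and negative ionization mode, with dead and dwell volumes of 40 μL and 900 μL. Each retention time was taken from a computationally picked adduct peak that was then manually inspected.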

Structure (SMILES)	RP-LC retention time
Cc1nn(CC(=O)NCc2ccco2)c(=O)c2c(-n3cccc3)n(-c3ccc(Cl)cc3)nc12	990 s
O=C(c1ccc(Br)o1)N1c2ccccc2CC1c1nnc(C2CCOCC2)o1 (centres undefined)	804 s
CCCN(CCC)S(=O)(=O)c1ccc(Cl)c(OC)c1	1030 s
c1ccc(-c2nc3cnc(N4CCN(c5ccccc5)CC4)nc3o2)cc1	1340 s
COc1ccc(NC(=O)Cn2nc(C(F)(F)F)c(Br)c2C)cc1OC	958 s
Cc1cc(Cl)ccc1NC(=O)NCC1CCOCC1	788 s
Cc1noc(C)c1CN1CCC(NC(=O)Cc2ccccc2Cl)C1 (centres undefined)	613 s
CCCCc1ccc(NC(=O)Cn2nc3cc(C)nc(-c4ccc(OC)cc4)n3c2=O)cc1	1040 s
CN1CC2(CCN(C(=O)NC3CCCCC3)CC2)CC1C(=O)N1CCOCC1 (centres undefined)	595 s
COc1ccc2sc(N(CCN(C)C)C(=O)Cc3ccccc3)nc2c1	601 s
Cc1occc1-c1nnc2sc(COc3ccc(Br)cc3)nn12	1040 s
CC(C)(C)c1ccc(C(=O)NC2(c3nc(-c4ccccc4)no3)CCCCC2)cc1	1410 s
COc1ccc2c(c1)C1(CCN(S(=O)(=O)c3ccc(Cl)cc3)C1)C(=O)N2 (centres undefined)	894 s
CCC1CN(C(=O)N2CCC(C(=O)NCCc3ccco3)CC2)c2cc(C)ccc2O1 (centres undefined)	706 s
C=CCNC(=O)c1cn(-c2ccc(-c3nc(CC)no3)cn2)cn1	750 s
O=C(c1ccc(-c2c(-c3ccc(F)cc3)ncn2C2CCCC2)o1)N1CCN(c2ncccn2)CC1	727 s
CC1CCN(S(=O)(=O)c2ccc(-c3nnc(C(=O)NCCCN4CCCC4=O)o3)cc2)CC1	792 s
Cc1ccccc1-c1nnc(CSc2nnc(NC(=O)C3CC3)s2)o1	822 s
CCc1cc(=O)n(CC(=O)Nc2cccc(Cl)c2)c(-c2ccccc2)n1	1220 s
O=C(NCCc1csc(-c2cccs2)n1)C1CCN(C(=O)c2cccc(F)c2)CC1	768 s
CCN1C(=O)C2(CCN(C(=O)c3ccc(OC(C)C)cc3)CC2)c2ccccc21	1020 s
CCOC(=O)c1c(C)[nH]c(C(=O)N2CCC(C(C)C(=O)NCc3ccc(F)cc3)CC2)c1C (centres undefined)	805 s
Cc1cc(C)cc(NC(=O)N2CCC3(CC2)NC(=O)c2ccccc2N3C)c1	808 s

Structure (SMILES)	RP-LC retention time
COc1ccc(Cl)cc1-n1c(SCC(=O)N2CCC(C(N)=O)CC2)nc2ccccc2c1=O	717 s
CC(C)CC(C)NC(=O)c1ccc(CN2C(=O)C3CCCN3C(=O)c3ccccc32)cc1 (centres undefined)	836 s
Cc1nn(-c2ccccc2)c2nc(N3CCCC(C(=O)NCc4ccc(F)cc4)C3)sc12 (centres undefined)	806 s
COc1cc(NC(=O)c2cc3c(n(-c4ccc(F)cc4)c2=O)CCCC3=O)cc(OC)c1	958 s
CC(NC(=O)c1cccc2c1CCN2C(=O)Nc1ccccc1)c1cccnc1 (centres undefined)	643 s
CC(C)OC(=O)C(C(=O)OC(C)C)=C1SC=CS1	1110 s
CC(C)n1cc(S(=O)(=O)NCc2ccc(C(F)(F)F)cc2)c2cccnc21	974 s
Cc1ccc(-c2ccc(N3CCCC(C(=O)NC4CCCC4)C3)nn2)cc1 (centres undefined)	696 s
CC(C)C(=O)N1CCN(c2ccc(Nc3c4c(nc5nc(-c6ccccc6)nn35)CCCC4)cc2)CC1	898 s
CCCn1c(CCNC(=O)c2ccc(F)cc2F)nc2cccnc21	675 s
CN(C)S(=O)(=O)c1ccc(-c2nc3ccccc3s2)cc1	578 s
CCOc1cccc(C2c3[nH]c4ccccc4c3CCN2C(=O)C2CC2)c1 (centres undefined)	1100 s
Cc1ccc(C(=O)N2CCN(c3nnc4ccc(C(F)(F)F)cn34)CC2)s1	762 s
CCC1CCC(c2nnc(-c3ccc([N+](=O)[O-])cc3)o2)CC1 (centres undefined)	1120 s
O=C(N[C@H]1C[C@@H]2C[C@H]1N(C(=O)CSc1ccccc1)C2)c1ccccc1	786 s
O=C(c1c[nH]c2ncccc12)N1CCCCCC1	646 s
Cc1cc(C)c(S(=O)(=O)N2CCN(Cc3cccc(F)c3)C3(CCOCC3)C2)cc1C	974 s
COc1nccnc1N1CCC(NC(=O)Cc2ccsc2)C1 (centres undefined)	611 s
O=C(c1ccc(N2CCOCC2)nn1)N1CCN(c2cccc(C(F)(F)F)c2)CC1	779 s
CCCn1c(CCNC(=O)c2ccc(CC)cc2)nc2cccnc21	723 s
CCc1onc(C)c1C1CCCN1C(=O)Nc1ccc(OC)cc1OC (centres undefined)	796 s
CN(C)C(=O)c1ccc2c(c1)N(CC(=O)NCCCN1CCOCC1)C(=O)C1CCCCN21 (centres undefined)	593 s
COc1ccc(N2CC(C(=O)NC(C(=O)N3CCCc4ccccc43)c3ccccc3)CC2=O)cc1 (centres undefined)	900 s

Structure (SMILES)	RP-LC retention time
O=C(Cc1ccc(Cl)cc1)Nc1cc(-c2ccccn2)no1	850 s
CCn1c(=O)c(N2CCC(C(=O)NCCc3c[nH]c4ccc(C)cc34)CC2)nc2ccccc21	966 s
O=C(CC(F)(F)F)N1CCC(c2noc(-c3ccccc3)n2)C1 (centres undefined)	870 s
O=C(C1CCN(c2ccc3nncn3n2)CC1)N1CCN(c2ncccn2)CC1	604 s
Cc1nn(C(C)C(=O)NCCCN2CCN(C)CC2)c(=O)c2c1sc1ccccc12 (centres undefined)	592 s
O=C(NCCc1csc(-c2cccc(F)c2)n1)C1CCCC1	832 s
COc1ccc(N(CCC#N)S(=O)(=O)c2cccc3nsnc23)cc1	789 s
O=C(Cn1nc2c(Oc3ccc(F)cc3)nccn2c1=O)NC1CCCCC1	804 s
CCOc1ccc(-c2nc(-c3ccc4c(c3)N(CC)C(=O)CO4)no2)cc1	1240 s
Clc1ccc(-c2nnc(-c3cccnc3N3CCN(c4ccccn4)CC3)o2)cc1	710 s
CCC(=O)Nc1ccc(OCc2cc(C(=O)NC3CCCCC3)no2)cc1	840 s
COc1ccccc1N1CCN(c2ccnc(SCC(=O)Nc3ccccc3C)n2)CC1	666 s
Cc1cc(C2CCCN2C(=O)Nc2ccc(F)c(Cl)c2)no1 (centres undefined)	808 s
Cn1c(=O)sc2cc(S(=O)(=O)N3CCC(C(=O)NCCN4CCCCCC4)CC3)ccc21	623 s
COc1cccc(CCC(=O)NCC(=O)Nc2nc3ccccc3[nH]2)c1	639 s
CCCN1CCC(c2cccc(S(C)(=O)=O)c2)CC1	600 s
CS(=O)(=O)N1CCC(CNC(=O)C(=O)Nc2ccon2)CC1	609 s
CC(NC(=O)C1CCN(C(=O)c2ncn3c2COC(c2ccccc2)C3)CC1)c1ccc(F)cc1 (centres undefined)	848 s
CCC(C(=O)NCCN1CCN(CC)CC1)n1c2ccccc2c2cnn(C)c(=O)c21 (centres undefined)	595 s
CCc1nc2cc(-c3noc(COc4ccccc4C)n3)ccc2o1	1270 s
COc1ccc(S(=O)(=O)N2CCC(n3cnnc3-c3ccccc3)CC2)cc1OC	718 s
COc1ccc(Br)cc1CNC(=O)Cn1cnc2nc3c(cc2c1=O)CC(C)CC3 (centres undefined)	845 s
COc1ccccc1CNC(=O)CN1CCN(Cc2ccc(F)cc2)C1=O	778 s

Structure (SMILES)	RP-LC retention time
COc1ccc(-c2cc3n(n2)CCCN(C(=O)c2cnccn2)C3)cc1	695 s
CN(c1ccccc1)c1nc(=O)n(CC(=O)Nc2ccc3c(c2)OCCO3)c2ccccc12	785 s
CCCN(CC1CCOC1)C(=O)Nc1ccccc1F (centres undefined)	728 s
CCN(CC)C(=O)Cn1nc2ncccn2c1=O	532 s
O=C(c1ccc(-n2cccn2)nn1)N1CCN(C(=O)c2ccco2)CC1	611 s
COc1ccc(C2CN(S(=O)(=O)c3ccc(C#N)cc3)CCN2C)cc1 (centres undefined)	564 s
CC(C)(C)n1nnnc1C1CC2(CCOCC2)C(=O)N1Cc1ccc(F)cc1Cl (centres undefined)	671 s
CCn1cc(C2=CCN(C(=O)NCc3ccc(C)cc3)CC2)c2cccnc21	873 s
Cc1ccc(CNC(=O)C2(C)CCN(S(=O)(=O)c3ccc(Cl)cc3)CC2)cc1	615 s
CCOc1ccccc1-c1nn2c(-c3cccnc3)nnc2s1	1040 s
CCN1CCN(c2cc(-c3nc(-c4ccccc4)no3)c3ccccc3n2)CC1	822 s
CCOc1ccc(Cn2c(=O)c3sccc3n(Cc3nc(-c4cccc(C)c4)no3)c2=O)cc1	1180 s
O=C(Nc1cccc(Oc2ccccn2)c1)c1c2c(nn1C1CCS(=O)(=O)C1)CCC2 (centres undefined)	807 s
CCC(C(=O)NCCCN1CCN(CC)CC1)n1nc(C)c2sc3ccccc3c2c1=O (centres undefined)	624 s
COc1ccc(OC)c(NC(=O)c2c(N3CCCC3=O)c3cc(F)ccc3n2C)c1	785 s
COc1cccc(CNC2CCN(c3ccc(C(=O)NC4CC4)cn3)C2)c1 (centres undefined)	547 s
O=C(Cn1cnc2nc(N3CCC(C(=O)NC4CC4)CC3)sc2c1=O)Nc1ccccc1Cl	665 s
COc1ccc2nc(C)cc(SCC(=O)Nc3csc4nc(=O)c(C)nn34)c2c1	590 s
COc1ccc(N2N=NC3C(=O)N(c4ccc(F)cc4)C(=O)C32)cc1OC (centres undefined)	1140 s
CC1CCCN(S(=O)(=O)c2cc(C(=O)NCCC3=CCCCC3)n(C)c2)C1 (centres undefined)	1140 s
